Measured values: patent US20160375006A1, “USES OF PARALOG-SELECTIVE INHIBITORS OF GSK3 KINASES” (priority 2012, published 2016)
pIC50: −log10 of the molar value. Where two headings read alike, the source gives them in different places.

Tests used:
AKT2 = AKT2 (Homo sapiens, UniProt P31751)
Experimental: (§1) This was completed utilizing one of two assays depending on the kinase being examined.
(§2) A solution of IMAP binding reagent (IMAP Screening Express kit; Molecular Devices) (60 μL) was added to each well and incubated for 30 minutes.
(§3) A solution of termination buffer (QuickScout Screening assist MSA; Carna Biosciences) (60 μL) was added to each well. The entire reaction mixture was then applied to a LabChip3000 system (Caliper Life Science) and the product and substrate peptide peaks were separated and quantified.
(§4) The assay utilized was identical to that of the single point inhibitory activity determination (MSA) but run in dose response. […] A solution of termination buffer (QuickScout Screening assist MSA; Carna Biosciences) (60 μL) was added to each well. The entire reaction mixture was then applied to a LabChip3000 system (Caliper Life Science) and the product and substrate peptide peaks were separated and quantified.

TYRO3 = TYRO3 (Homo sapiens, UniProt Q06418)
Experimental: as §1, §2, §3

MET = MET (Homo sapiens, UniProt P08581)
Experimental: as §2, §3, §4

CDK7/CycH/MAT1 = CDK7/CycH/MAT1 (Homo sapiens, UniProt P50613)
Experimental: as §1, §2, §3, §4

JNK2 = JNK2 (Homo sapiens, UniProt P45984)
Experimental: as §1, §2, §3, §4

CaMK2α = CaMK2α (Homo sapiens, UniProt Q9UQM7)
Sequence of CaMK2α (Q9UQM7 whole entry): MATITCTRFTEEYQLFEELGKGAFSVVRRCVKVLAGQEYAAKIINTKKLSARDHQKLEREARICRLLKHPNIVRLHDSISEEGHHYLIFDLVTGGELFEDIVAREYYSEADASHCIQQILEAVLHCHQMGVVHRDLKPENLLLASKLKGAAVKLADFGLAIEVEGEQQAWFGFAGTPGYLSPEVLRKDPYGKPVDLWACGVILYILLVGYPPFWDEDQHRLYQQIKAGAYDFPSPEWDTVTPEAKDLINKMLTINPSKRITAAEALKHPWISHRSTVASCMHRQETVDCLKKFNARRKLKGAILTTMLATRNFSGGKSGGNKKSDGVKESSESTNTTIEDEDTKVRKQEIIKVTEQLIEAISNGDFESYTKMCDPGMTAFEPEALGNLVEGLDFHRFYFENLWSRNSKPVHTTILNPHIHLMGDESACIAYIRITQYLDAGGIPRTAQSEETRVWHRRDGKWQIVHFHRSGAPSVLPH
Experimental: as §1, §2, §3, §4

FRK = FRK (Homo sapiens, UniProt P42685)
Experimental: as §1, §2, §3, §4

MRCKα = MRCKα (Homo sapiens, UniProt Q5VT25)
Experimental: as §1, §2, §3, §4

ALK(R1275Q) = ALK(R1275Q) (Homo sapiens, UniProt Q9UM73, R1275Q)
Experimental: as §1, §2, §3, §4

PDK1 = PDK1 (Homo sapiens, UniProt O15530)
Sequence of PDK1 (O15530 whole entry): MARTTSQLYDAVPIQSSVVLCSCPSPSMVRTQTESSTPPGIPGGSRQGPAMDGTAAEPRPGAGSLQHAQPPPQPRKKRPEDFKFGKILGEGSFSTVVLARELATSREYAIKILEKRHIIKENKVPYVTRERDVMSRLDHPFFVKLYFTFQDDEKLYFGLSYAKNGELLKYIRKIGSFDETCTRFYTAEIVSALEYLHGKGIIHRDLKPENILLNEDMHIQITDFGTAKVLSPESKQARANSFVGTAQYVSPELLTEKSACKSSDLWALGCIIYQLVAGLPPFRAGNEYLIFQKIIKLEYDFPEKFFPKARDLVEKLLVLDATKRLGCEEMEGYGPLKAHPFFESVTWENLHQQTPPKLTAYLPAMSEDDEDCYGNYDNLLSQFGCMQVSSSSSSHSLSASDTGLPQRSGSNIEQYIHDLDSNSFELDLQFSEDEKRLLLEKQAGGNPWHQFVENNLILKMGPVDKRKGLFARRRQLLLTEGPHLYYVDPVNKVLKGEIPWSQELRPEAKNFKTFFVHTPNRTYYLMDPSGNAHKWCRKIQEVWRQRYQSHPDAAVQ
Experimental: as §1, §2, §3, §4

JAK2 = JAK2 (Homo sapiens, UniProt O60674)
Experimental: as §1, §2, §3, §4

MAPKAPK5 = MAPKAPK5 (Homo sapiens, UniProt Q8IW41)
Experimental: as §1, §2, §3, §4

CDC2/CycB1 = CDC2/CycB1 (Homo sapiens, UniProt P06493)
Experimental: as §1, §2, §3, §4

EGFR(L858R) = EGFR(L858R) (Homo sapiens, UniProt P00533, L858R)
Experimental: as §1, §2, §3, §4

ABL(T315I) = ABL(T315I) (Homo sapiens, UniProt P00519, T315I)
Experimental: as §1, §2, §3, §4

NEK6 = NEK6 (Homo sapiens, UniProt Q9HC98)
Sequence of NEK6 (Q9HC98 whole entry): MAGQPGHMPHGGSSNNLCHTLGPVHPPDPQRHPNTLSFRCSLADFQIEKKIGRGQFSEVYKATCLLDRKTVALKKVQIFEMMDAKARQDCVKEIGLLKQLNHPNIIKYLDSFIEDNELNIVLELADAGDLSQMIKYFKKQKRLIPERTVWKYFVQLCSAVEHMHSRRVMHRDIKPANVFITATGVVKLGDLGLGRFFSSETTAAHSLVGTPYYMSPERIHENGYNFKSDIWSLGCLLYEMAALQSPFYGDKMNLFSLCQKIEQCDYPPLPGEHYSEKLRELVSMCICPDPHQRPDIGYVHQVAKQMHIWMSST
Experimental: as §1, §2, §3

PHKG1 = PHKG1 (Homo sapiens, UniProt Q16816)
Experimental: as §1, §2, §3, §4

CLK1 = CLK1 (Homo sapiens, UniProt P49759); assay: Carna kinase panel; format: biochemical
Experimental: as §1, §2, §3

p38α = p38α (Homo sapiens, UniProt Q16539)
Experimental: as §1, §2, §3, §4

ALK = ALK (Homo sapiens, UniProt Q9UM73)
Experimental: as §1, §2, §3

Erk5 = target: T1, Erk5 (Homo sapiens, UniProt Q13164); assay: Carna kinase panel; format: biochemical
T1 construct: purchased Carna Biosciences
Experimental: as §1, §2, §3

p70S6Kβ = p70S6Kβ (Homo sapiens, UniProt Q9UBS0)
Sequence of p70S6Kβ (Q9UBS0 whole entry): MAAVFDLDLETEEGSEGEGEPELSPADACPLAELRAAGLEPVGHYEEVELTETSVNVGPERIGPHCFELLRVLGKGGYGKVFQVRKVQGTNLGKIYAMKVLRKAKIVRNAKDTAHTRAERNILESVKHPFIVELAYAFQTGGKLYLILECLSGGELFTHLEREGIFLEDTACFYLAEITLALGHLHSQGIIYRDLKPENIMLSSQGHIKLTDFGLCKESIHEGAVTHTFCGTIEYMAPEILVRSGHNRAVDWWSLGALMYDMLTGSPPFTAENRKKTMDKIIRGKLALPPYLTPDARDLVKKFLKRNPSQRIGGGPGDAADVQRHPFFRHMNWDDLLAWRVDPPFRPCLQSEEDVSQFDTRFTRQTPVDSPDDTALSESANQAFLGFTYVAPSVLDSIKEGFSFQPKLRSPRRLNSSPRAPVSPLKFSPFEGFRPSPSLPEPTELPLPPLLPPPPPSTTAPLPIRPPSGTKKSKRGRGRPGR
Experimental: as §1, §2, §3, §4

EPHA1 = EPHA1 (Homo sapiens, UniProt P21709)
Experimental: as §2, §3, §4

DAPK1 = DAPK1 (Homo sapiens, UniProt P53355)
Experimental: as §1, §2, §3, §4

HCK = HCK (Homo sapiens, UniProt P08631)
Experimental: as §1, §2, §3

HIPK3 = HIPK3 (Homo sapiens, UniProt Q9H422)
Experimental: as §1, §2, §3, §4

Erk2 = Erk2 (Homo sapiens, UniProt P28482)
Experimental: as §1, §2, §3

FLT3 = FLT3 (Homo sapiens, UniProt P36888)
IRAK4 = IRAK4 (Homo sapiens, UniProt Q9NWZ3)
Experimental: as §1, §2, §3, §4

CDK5/p25 = CDK5/p25 (Homo sapiens, UniProt Q00535)
Sequence of CDK5/p25 (Q00535 whole entry, species assumed): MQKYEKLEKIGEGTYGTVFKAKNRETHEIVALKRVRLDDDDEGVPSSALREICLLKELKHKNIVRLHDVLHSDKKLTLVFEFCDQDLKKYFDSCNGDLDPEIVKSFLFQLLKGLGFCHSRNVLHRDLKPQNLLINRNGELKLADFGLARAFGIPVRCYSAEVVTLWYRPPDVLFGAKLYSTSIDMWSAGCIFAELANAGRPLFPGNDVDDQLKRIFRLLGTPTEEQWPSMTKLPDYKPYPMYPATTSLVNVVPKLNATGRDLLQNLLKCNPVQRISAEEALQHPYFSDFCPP
Sequence of CDK5/p25 (Q15078 99-307 partner limits assumed, species assumed): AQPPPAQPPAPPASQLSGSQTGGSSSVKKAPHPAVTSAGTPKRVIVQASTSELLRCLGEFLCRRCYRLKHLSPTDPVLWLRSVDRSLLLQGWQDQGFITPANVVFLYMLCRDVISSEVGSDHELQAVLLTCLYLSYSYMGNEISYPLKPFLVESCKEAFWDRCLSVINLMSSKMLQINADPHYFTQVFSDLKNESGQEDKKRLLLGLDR
Experimental: as §1, §2, §3, §4

KIT(V560G) = KIT(V560G) (Homo sapiens, UniProt P10721, V560G)
Experimental: as §1, §2, §3, §4

EGFR = EGFR (Homo sapiens, UniProt P00533)
Sequence of EGFR (P00533 25-1210): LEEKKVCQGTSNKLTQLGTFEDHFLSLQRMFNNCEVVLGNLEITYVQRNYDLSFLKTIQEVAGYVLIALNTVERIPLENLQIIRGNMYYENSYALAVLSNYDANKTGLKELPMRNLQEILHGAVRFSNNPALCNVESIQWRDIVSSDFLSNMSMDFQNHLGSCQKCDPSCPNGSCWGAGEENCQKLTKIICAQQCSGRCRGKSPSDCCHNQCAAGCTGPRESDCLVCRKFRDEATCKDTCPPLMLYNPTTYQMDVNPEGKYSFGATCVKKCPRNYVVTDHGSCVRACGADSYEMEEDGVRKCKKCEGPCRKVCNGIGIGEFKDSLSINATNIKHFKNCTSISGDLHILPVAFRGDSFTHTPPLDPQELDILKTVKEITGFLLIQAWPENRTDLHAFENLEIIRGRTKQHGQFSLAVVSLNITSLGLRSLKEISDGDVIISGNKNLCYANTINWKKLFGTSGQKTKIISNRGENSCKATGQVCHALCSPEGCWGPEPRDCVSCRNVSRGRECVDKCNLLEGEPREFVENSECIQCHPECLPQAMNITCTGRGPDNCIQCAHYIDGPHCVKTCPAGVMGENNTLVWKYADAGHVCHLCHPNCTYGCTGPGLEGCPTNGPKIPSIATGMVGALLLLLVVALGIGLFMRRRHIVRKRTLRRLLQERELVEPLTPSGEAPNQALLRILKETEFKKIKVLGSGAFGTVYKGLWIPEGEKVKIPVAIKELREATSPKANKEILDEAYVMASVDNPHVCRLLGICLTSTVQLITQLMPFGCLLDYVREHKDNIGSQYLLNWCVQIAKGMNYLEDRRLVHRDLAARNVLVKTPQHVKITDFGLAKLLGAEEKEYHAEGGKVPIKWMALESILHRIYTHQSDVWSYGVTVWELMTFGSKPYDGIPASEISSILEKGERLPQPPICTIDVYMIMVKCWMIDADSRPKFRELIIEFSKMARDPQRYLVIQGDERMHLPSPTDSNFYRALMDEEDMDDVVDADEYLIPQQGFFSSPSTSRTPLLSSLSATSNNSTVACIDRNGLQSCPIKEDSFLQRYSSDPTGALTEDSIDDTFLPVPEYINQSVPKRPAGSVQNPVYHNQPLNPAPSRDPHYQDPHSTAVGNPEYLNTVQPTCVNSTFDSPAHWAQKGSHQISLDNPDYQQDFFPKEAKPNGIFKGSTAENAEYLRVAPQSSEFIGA
Experimental: as §1, §2, §3, §4

JAK3 = JAK3 (Homo sapiens, UniProt P52333)
Experimental: as §1, §2, §3, §4

MARK1 = MARK1 (Homo sapiens, UniProt Q9P0L2)
Experimental: as §1, §2, §3, §4

PYK2 = PYK2 (Homo sapiens, UniProt Q14289)
Experimental: as §1, §2, §3

PAK2 = PAK2 (Homo sapiens, UniProt Q13177)
Experimental: as §1, §2, §3, §4

CHK2 = CHK2 (Homo sapiens, UniProt O96017)
Experimental: as §1, §2, §3, §4

FGFR4(V550L) = FGFR4(V550L) (Homo sapiens, UniProt P22455, V550L)
Experimental: as §1, §2, §3, §4

CDK2/CycA2 = CDK2/CycA2 (Homo sapiens, UniProt P24941)
Experimental: as §1, §2, §3, §4

Sequence of CDK7/CycH/MAT1 (P50613 whole entry): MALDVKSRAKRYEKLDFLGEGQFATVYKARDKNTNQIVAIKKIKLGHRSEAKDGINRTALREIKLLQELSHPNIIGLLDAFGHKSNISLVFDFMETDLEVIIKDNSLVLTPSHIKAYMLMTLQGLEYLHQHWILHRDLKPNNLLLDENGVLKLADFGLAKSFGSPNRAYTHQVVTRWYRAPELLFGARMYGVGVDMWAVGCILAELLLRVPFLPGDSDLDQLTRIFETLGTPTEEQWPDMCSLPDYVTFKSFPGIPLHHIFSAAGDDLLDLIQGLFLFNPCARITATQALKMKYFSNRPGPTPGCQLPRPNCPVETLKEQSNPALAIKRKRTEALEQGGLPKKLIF
Sequence of CDK7/CycH/MAT1 (P51946 whole entry partner): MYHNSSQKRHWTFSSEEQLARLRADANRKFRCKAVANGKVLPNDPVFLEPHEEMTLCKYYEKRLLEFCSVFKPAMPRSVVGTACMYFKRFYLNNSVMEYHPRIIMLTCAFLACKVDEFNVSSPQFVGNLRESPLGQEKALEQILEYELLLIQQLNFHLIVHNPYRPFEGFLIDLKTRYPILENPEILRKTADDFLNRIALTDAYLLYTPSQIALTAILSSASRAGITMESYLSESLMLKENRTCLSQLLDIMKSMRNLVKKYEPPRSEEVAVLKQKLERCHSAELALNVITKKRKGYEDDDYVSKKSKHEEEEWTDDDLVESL
Sequence of CDK7/CycH/MAT1 (P51948 whole entry partner): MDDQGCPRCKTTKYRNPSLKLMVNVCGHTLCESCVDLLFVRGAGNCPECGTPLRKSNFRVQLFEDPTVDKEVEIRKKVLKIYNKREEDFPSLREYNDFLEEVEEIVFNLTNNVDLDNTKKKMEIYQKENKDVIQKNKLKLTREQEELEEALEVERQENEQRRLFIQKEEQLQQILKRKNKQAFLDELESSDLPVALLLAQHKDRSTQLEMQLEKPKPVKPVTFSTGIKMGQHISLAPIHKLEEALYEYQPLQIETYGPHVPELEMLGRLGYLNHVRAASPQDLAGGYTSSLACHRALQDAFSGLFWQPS
Sequence of JNK2 (P45984 whole entry): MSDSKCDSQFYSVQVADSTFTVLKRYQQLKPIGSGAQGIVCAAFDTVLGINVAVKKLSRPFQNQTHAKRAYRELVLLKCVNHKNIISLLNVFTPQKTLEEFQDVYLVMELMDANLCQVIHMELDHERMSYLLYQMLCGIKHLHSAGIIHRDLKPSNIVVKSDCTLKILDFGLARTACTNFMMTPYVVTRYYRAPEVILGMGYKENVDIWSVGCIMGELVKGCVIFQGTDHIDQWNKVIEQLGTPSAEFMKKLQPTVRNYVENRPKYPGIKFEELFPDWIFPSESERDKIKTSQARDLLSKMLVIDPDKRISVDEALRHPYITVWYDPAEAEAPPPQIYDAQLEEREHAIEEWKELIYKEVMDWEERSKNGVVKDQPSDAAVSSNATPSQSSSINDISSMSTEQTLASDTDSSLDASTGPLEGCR

CC[C@@]1(c2ccccc2)C2=C(CC(C)(C)CC2=O)Nc2n[nH]cc21 [BRD0705] was tested, and the “% Inhibition at 10 μM” value (AKT2) was −4.7%, the “% Inhibition at 10 μM” value (TYRO3) was 3.8% and the “% Inhibition at 10 μM” value (MET) was −2.4%. For the same compound, the “% Inhibition at 10 μM” value (CDK7/CycH/MAT1) was 8.3%, the “% Inhibition at 10 μM” value (JNK2) was −2.5% and the “% Inhibition at 10 μM” value (CaMK2α) was −8.6%. The “% Inhibition at 10 μM” value (FRK) was 0.9%, the “% Inhibition at 10 μM” value (MRCKα) was −3.8% and the “% Inhibition at 10 μM” value (ALK(R1275Q)) was 0.7%. For the same compound, the “% Inhibition at 10 μM” value (PDK1) was −6.7%, the “% Inhibition at 10 μM” value (JAK2) was −0.5% and the “% Inhibition at 10 μM” value (MAPKAPK5) was −1.0%. The “% Inhibition at 10 μM” value (CDC2/CycB1) was 17.2%, the “% Inhibition at 10 μM” value (EGFR(L858R)) was −4.0% and the “% Inhibition at 10 μM” value (ABL(T315I)) was 0.7%. The “% Inhibition at 10 μM” value (NEK6) was −5.7%, the “% Inhibition at 10 μM” value (PHKG1) was −2.5% and the “% Inhibition at 10 μM” value (CLK1) was −7.1%. For the same compound, the “% Inhibition at 10 μM” value (p38α) was −8.5%, the “% Inhibition at 10 μM” value (ALK) was 1.1% and the “% Inhibition at 10 μM” value (Erk5) was −7.9%. The “% Inhibition at 10 μM” value (p70S6Kβ) was −2.1%, the “% Inhibition at 10 μM” value (EPHA1) was −2.3% and the “% Inhibition at 10 μM” value (DAPK1) was −6.0%. The “% Inhibition at 10 μM” value (HCK) was 1.1%, the “% Inhibition at 10 μM” value (HIPK3) was −7.6% and the “% Inhibition at 10 μM” value (Erk2) was 1.6%. The “% Inhibition at 10 μM” value (FLT3) was 25.0%, the “% Inhibition at 10 μM” value (IRAK4) was −7.4% and the “% Inhibition at 10 μM” value (CDK5/p25; CDK5/p25) was 52.0%. The pIC50 (CDK5/p25; read-out: IC50 CDK5/p25) was 5.04, the “% Inhibition at 10 μM” value (KIT(V560G)) was −1.7% and the “% Inhibition at 10 μM” value (EGFR) was 0.3%. For the same compound, the “% Inhibition at 10 μM” value (JAK3) was 4.1%, the “% Inhibition at 10 μM” value (MARK1) was 3.1% and the “% Inhibition at 10 μM” value (PYK2) was 3.5%. The “% Inhibition at 10 μM” value (PAK2) was 6.4%, the “% Inhibition at 10 μM” value (CHK2) was −3.6% and the “% Inhibition at 10 μM” value (FGFR4(V550L)) was −0.4%. The “% Inhibition at 10 μM” value (CDK2/CycA2; CDK2/CycA2) was 65.3% and the pIC50 (CDK2/CycA2; read-out: IC50 CDK2/CycA2) was 5.16.
For CC(C)(C)Cc1[nH]nc2c1[C@](C)(c1ccccc1)C1=C(CC(C)(C)CC1=O)N2 [BRD3731], the “% Inhibition 10 μM” value (AKT2; 10 μM) was −8.4%, the “% Inhibition 10 μM” value (TYRO3; 10 μM) was −3.5% and the “% Inhibition 10 μM” value (MET; 10 μM) was −0.8%. For the same compound, the “% Inhibition 10 μM” value (CDK7/CycH/MAT1; 10 μM) was 21.3%, the “% Inhibition 10 μM” value (JNK2; 10 μM) was −3.9% and the “% Inhibition 10 μM” value (CaMK2α; 10 μM) was −4.3%. For the same compound, the “% Inhibition 10 μM” value (FRK; 10 μM) was 3.2%, the “% Inhibition 10 μM” value (MRCKα; 10 μM) was 4.3% and the “% Inhibition 10 μM” value (ALK(R1275Q); 10 μM) was 1.9%. The “% Inhibition 10 μM” value (PDK1; 10 μM) was 2.0%, the “% Inhibition 10 μM” value (JAK2; 10 μM) was 3.0% and the “% Inhibition 10 μM” value (MAPKAPK5; 10 μM) was 6.1%. For the same compound, the “% Inhibition 10 μM” value (CDC2/CycB1; 10 μM) was 27.8%, the “% Inhibition 10 μM” value (EGFR(L858R); 10 μM) was −1.2% and the “% Inhibition 10 μM” value (ABL(T315I); 10 μM) was −2.4%. The “% Inhibition 10 μM” value (NEK6; 10 μM) was 0.0%, the “% Inhibition 10 μM” value (PHKG1; 10 μM) was 13.9% and the “% Inhibition 10 μM” value (CLK1; 10 μM) was 3.1%. For the same compound, the “% Inhibition 10 μM” value (p38α; 10 μM) was 0.9%, the “% Inhibition 10 μM” value (ALK; 10 μM) was 3.0% and the “% Inhibition 10 μM” value (Erk5; 10 μM) was 4.5%. For the same compound, the “% Inhibition 10 μM” value (p70S6Kβ; 10 μM) was 12.6%, the “% Inhibition 10 μM” value (EPHA1; 10 μM) was 2.1% and the “% Inhibition 10 μM” value (DAPK1; 10 μM) was −3.4%. For the same compound, the “% Inhibition 10 μM” value (HCK; 10 μM) was 6.6%, the “% Inhibition 10 μM” value (HIPK3; 10 μM) was 3.2% and the “% Inhibition 10 μM” value (Erk2; 10 μM) was 0.9%. For the same compound, the “% Inhibition 10 μM” value (FLT3; 10 μM) was 13.8%, the “% Inhibition 10 μM” value (IRAK4; 10 μM) was 0.1% and the pIC50 (CDK5/p25; CDK5/p25) was 5.05. For the same compound, the “% Inhibition 10 μM” value (CDK5/p25; CDK5/p25, 10 μM) was 48.3%, the “Fold Selectivity” value (CDK5/p25; IC50 CDK5/p25 / IC50 GSK3β) was 331.0 fold and the “% Inhibition 10 μM” value (KIT(V560G); 10 μM) was 1.4%. For the same compound, the “% Inhibition 10 μM” value (EGFR; 10 μM) was 10.0%, the “% Inhibition 10 μM” value (JAK3; 10 μM) was 7.8% and the “% Inhibition 10 μM” value (MARK1; 10 μM) was 9.3%. For the same compound, the “% Inhibition 10 μM” value (PYK2; 10 μM) was 5.3%, the “% Inhibition 10 μM” value (PAK2; 10 μM) was 0.0% and the “% Inhibition 10 μM” value (CHK2; 10 μM) was 1.5%. The “% Inhibition 10 μM” value (FGFR4(V550L); 10 μM) was 2.9%, the pIC50 (CDK2/CycA2; CDK2/CycA2) was under 5.00 and the “% Inhibition 10 μM” value (CDK2/CycA2; CDK2/CycA2, 10 μM) was 36.3%. For the same compound, the “Fold Selectivity” value (CDK2/CycA2; IC50 CDK2/CycA2 / IC50 GSK3β) was over 370 fold.
